From publication PMC10846744, “Cathelicidin peptide analogues inhibit EV71 infection through blocking viral entry and uncoating” (PLOS Pathogens, 2024)

Key:
EV71 virions = assay: Viral particle stability thermal release assay (PaSTRY); parameters: species or system enterovirus 71 (EV71); conditions: EV71 MOI = 10 pre-incubated with LL-18 or NaCl, SYBR green II, heated 25°C to 80°C; PBS control around 45°C
Method: Fig 6 LL-18 stabilizes the viral particles by inhibiting uncoating. (A) EV71 virus (MOI = 10) was pre-incubated with PBS, indicated amount of LL-18 or NaCl for 1 hr and then mixed with SYBR green dyes II before they were heated to indicated temperatures. The fluorescent signals were measured and plotted against temperature. PBS was used as a negative control. (B) EV71 virus (MOI = 10) was pre-incubated with PBS, LL-18, or 12s for 2 hrs. Half of the samples were then treated with 1.5 μg SCARB2 protein and incubated at 37°C for 2 hrs at pH 5.5. Samples were then subjected to ultracentrifugation as detailed in materials and methods. The numbers above represent the fractions collected from top to bottom.
EV71 viruses were preincubated with either PBS, NaCl or the indicated amount of LL-18 at room temperature for 2 hrs, before Sybr green II dye (3× working concentration, Solarbio, China) and RNase inhibitor (1 U/μL, Thermo Scientific) were added. The mixture was heated from 25°C to 80°C with an increment of 0.5°C for 30 seconds, and the fluorescence from SYBR green was monitored with a QuantGene 9600 real-time PCR system (Bioer, China).

EV71 virus [1] = assay: EV71 infection inhibition on RD cells (VP1 immunoblot, viral titer, cell viability/CPE); assay type: cell-based, enterovirus 71 (EV71); conditions: RD cells; for inhibition of EV71 infection at 0.3, 0.9, or 1.5 μM / inhibition of EV71 infection at higher concentration: cell viability or viral titer 24 h.p.i; for inhibition of EV71 infection at 0.3, 0.9, or 1.5 μM: 0.3, 0.9, or 1.5 μM peptide; for inhibition of EV71 infection at higher concentration: much higher concentration than 1.5 μM
Method: Synthetic peptides were purchased from Bioyears Co. Ltd. (Wuhan, China) with purity of more than 95% and dissolved in PBS. To test their inhibitory effects, the EV71 virus (MOI = 1) was incubated with the indicated amount of peptide at room temperature for 1 hr before the mixture was added to RD cells and maintained throughout the experiment. Cell viability, viral titer, or viral protein expression was determined 24 h.p.i. For the time-of-addition experiment, viruses were either pre-incubated with peptides (for the -2 and -1 time points), the mixture was added to the cells simultaneously (for 0 time point), or peptides were added after virus infection (for 1, 2, 4 and 7 h time points) and the virus/peptide was maintained in the culture before cell viability, viral titer, or viral protein expression was determined 24 h.p.i. The TCID50 of the virus was calculated according to the Reed-Muench method.
Cells were treated as described and harvested with LDS sample buffer (Thermo Fisher Scientific). After denaturation, samples were separated on 10% SDS-PAGE gel and then transferred to a polyvinylidene fluoride (PVDF) membrane. The proteins were blocked using 5% skimmed milk and probed with the corresponding antibodies. The following antibodies were used in this study: EV71 VP1 polyclonal antibody (GeneTex, Taiwan, China), β-Actin antibody (Zen BioScience, Chengdu, China), pan-Enterovirus Monoclonal antibody (Thermo Fisher Scientific). The chemiluminescence signals were visualized using ECL Advance reagents (Mishubio, China), and the images were acquired using the FUSION Solo S Imaging System (VILBER, France).
(§1) Cell viability assays were carried out using the Cell Titer-Glo Luminescent Cell Viability Assay Kit (Promega, Madison, WI) following the manufacturer’s instructions. Luminescence signals were measured using a BioTek Neo2 microplate reader.
For crystal violet staining, cells treated as indicated were first washed once with PBS, followed by fixation with 4% PFA. Cells were then stained with 0.5% crystal violet for 2 hrs before they were extensively washed with water.

RD cells = assay: Cytotoxicity of peptides on RD cells (Cell Titer-Glo); assay type: cell-based, human; conditions: cell viability plotted against peptide concentration, Cell Titer-Glo (S1A-S1D Fig)
Method: To test whether Cathelicidin peptide (LL-37) and its analogues could inhibit enterovirus infection, we conducted viral infection inhibition test on RD cells, which are one of the most commonly used cells for enterovirus propagation. We first assessed the cytotoxicity of LL-37, LL-18, FF-18, and a short form of LL-37 (DL-37) (Fig 1A), and all the peptides tested have a CC50 over 50 μM (S1A–S1D Fig). We then chose lower concentrations to test their antiviral activity. […] In addition, EV71 infection could cause cytopathic effect (CPE) on RD cells, and peptide could rescue EV71-induced cell death as assayed by crystal violet staining (Fig 1E) or cellular ATP content measurement (Fig 1F).
as §1
(A-D) Cell viability of RD cells treated with the indicated amount of DL-37 (A), LL-37 (B), LL-18 (C), or FF-18 (D) was plotted against peptide concentration, and the cytotoxicity was determined. (E) EV71 virus pre-incubated with indicated amounts of DL-37, and the cell viability was determined 24 h.p.i. ***, P<0.001. (F-G) CVB5 (F) or Echo7 (G) virus pre-incubated with 0.3, 0.9, or 1.5 μM of peptides were used to infect RD cells. Cell viability was determined 24 h.p.i. ***, P<0.001. (H-I) CVB5 (H) or Echo7 (I) virus pre-incubated with 3, 6, or 12 μM of peptides were used to infect RD cells. Cell viability was determined 24 h.p.i. ***, P<0.001. (TIF) Click here for additional data file.

EV71 virus [2] = assay: 1H NMR titration of peptide with EV71 virus; assay type: binding, enterovirus 71 (EV71); conditions: molar ratio peptide to virus 90:1, 800 MHz, 298k
Method: (§2) The NMR titrations were performed on a Bruker 800 MHz (Avance NEO) spectrometer equipped with cryo-probe. The molar ratio of the peptide to the virus was 90:1. The experiments were recorded using zgespg pulse for 128 scans at 298k and the results were analyzed by Topspin.

CVB5 virus = assay: 1H NMR titration of peptide with CVB5 virus; assay type: binding, coxsackievirus B5; conditions: molar ratio peptide to virus 90:1, 800 MHz, 298k
Method: as §2

Row | Structure (SMILES) | temperature of peak SYBR green fluorescence intensity (RNA release) (EV71 virions) [°C] | inhibition of EV71 infection at 0.3, 0.9, or 1.5 μM (EV71 virus [1]) | inhibition of EV71 infection at higher concentration (EV71 virus [1]) | inhibition of EV71 infection (overall conclusion) (EV71 virus [1]; VP1 expression, viral titer, crystal violet and Cell Titer Glo 24 h.p.i) | CC50 (RD cells) | interaction of peptide with EV71 virus by 1H 1D NMR (amide region) (EV71 virus [2]) | interaction of peptide with CVB5 virus by 1H 1D NMR (amide region) (CVB5 virus)
1 | [Cl-].[Na+] [NaCl, reference compound] | 55 |  |  |  |  |  | 
2 | CC[C@H](C)[C@H](NC(=O)[C@H](CCCCN)NC(=O)[C@H](CCC(=O)O)NC(=O)[C@H](CCCCN)NC(=O)[C@H](CO)NC(=O)[C@H](CCCCN)NC(=O)[C@H](CCCNC(=N)N)NC(=O)[C@@H](N)Cc1ccccc1)C(=O)NCC(=O)N[C@@H](CCCCN)C(=O)N[C@@H](CCC(=O)O)C(=O)N[C@@H](Cc1ccccc1)C(=O)N[C@@H](CCCCN)C(=O)N[C@@H](CCCNC(=N)N)C(=O)N[C@H](C(=O)N[C@H](C(=O)N[C@@H](CCC(N)=O)C(=O)N[C@@H](CCCNC(=N)N)C(=O)N[C@H](C(=O)N[C@@H](CCCCN)C(=O)N[C@@H](CC(=O)O)C(=O)N[C@@H](Cc1ccccc1)C(=O)N[C@@H](CC(C)C)C(=O)N[C@@H](CCCNC(=N)N)C(=O)N[C@@H](CC(N)=O)C(=O)N[C@@H](CC(C)C)C(=O)N[C@H](C(=O)O)C(C)C)[C@@H](C)CC)C(C)C)[C@@H](C)CC (racemic) [DL-37] |  | could not inhibit EV71 infection | only showed inhibition at a much higher concentration | little antiviral activity | over 50 μM |  | 
3 | CC[C@H](C)[C@H](NC(=O)[C@H](CCCCN)NC(=O)[C@H](CCC(=O)O)NC(=O)[C@H](CCCCN)NC(=O)[C@H](CO)NC(=O)[C@H](CCCCN)NC(=O)[C@H](CCCNC(=N)N)NC(=O)[C@H](Cc1ccccc1)NC(=O)[C@H](Cc1ccccc1)NC(=O)[C@H](CC(=O)O)NC(=O)CNC(=O)[C@H](CC(C)C)NC(=O)[C@@H](N)CC(C)C)C(=O)NCC(=O)N[C@@H](CCCCN)C(=O)N[C@@H](CCC(=O)O)C(=O)N[C@@H](Cc1ccccc1)C(=O)N[C@@H](CCCCN)C(=O)N[C@@H](CCCNC(=N)N)C(=O)N[C@H](C(=O)N[C@H](C(=O)N[C@@H](CCC(N)=O)C(=O)N[C@@H](CCCNC(=N)N)C(=O)N[C@H](C(=O)N[C@@H](CCCCN)C(=O)N[C@@H](CC(=O)O)C(=O)N[C@@H](Cc1ccccc1)C(=O)N[C@@H](CC(C)C)C(=O)N[C@@H](CCCNC(=N)N)C(=O)N[C@@H](CC(N)=O)C(=O)N[C@@H](CC(C)C)C(=O)N[C@H](C(=O)N1CCC[C@H]1C(=O)N[C@@H](CCCNC(=N)N)C(=O)N[C@H](C(=O)N[C@@H](CCC(=O)O)C(=O)N[C@@H](CO)C(=O)O)[C@@H](C)O)C(C)C)[C@@H](C)CC)C(C)C)[C@@H](C)CC [LL-37, reference compound] |  | could not inhibit EV71 infection | only showed inhibition at a much higher concentration |  | over 50 μM | no interaction between the peptide and viruses | no interaction between the peptide and viruses
